Values quoted from earlier work, collected in PMC3266668 (Frontiers in Pharmacology, 2012).

Tests used:
[1] = tested on: patients after myocardial infarction; conditions: ref Echt et al., [1991]
[2] = tested on: isolated left ventricular wedge preparations; conditions: ref Lu et al., [2010]
isolated rabbit hearts = conditions: ref Lu et al., [2010]

SMILES | mortality in CAST treatment arms [1] | QRS interval effect [2] | ventricular tachycardia [2] | QRS interval effect (isolated rabbit hearts) | ventricular tachycardia (isolated rabbit hearts)
O=C(NCC1CCCCN1)c1cc(OCC(F)(F)F)ccc1OCC(F)(F)F (stereo not drawn) [flecainide] | increased mortality due to arrhythmias | – | – | – | –
COc1ccc(C(=O)Nc2ccccc2CCC2CCCCN2C)cc1 (stereo not drawn) [encainide] | increased mortality due to arrhythmias | – | – | – | –
CCN(CC)CC(=O)Nc1c(C)cccc1C [lidocaine] | – | only slightly increased QRS duration | without inducing ventricular tachycardia | small increase in QRS duration | did not induce ventricular tachycardia
